The source of these data is the supplement of paper PMC10307832.

Test in all cases: relative viability (nuclei count vs DMSO), 5 days (fraction); higher = more cells survive
Compound in assay [1]: C1CC1C(=O)NC2=NNC3=C2C=CC(=C3)C4=CC(=CC=C4)C(=O)NC5CC5 [XMD13-2] + CS(=O)(=O)CCNCc1ccc(-c2ccc3ncnc(Nc4ccc(OCc5cccc(F)c5)c(Cl)c4)c3c2)o1 [Lapatinib] (partner 2 µM)
A digest of the protocol:
(§1)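 Relative viability equals treated-well nuclei counts divided by vehicle-well nuclei counts. Counts came from 4× images of lung cancer cell lines grown in 1536-well plates for 5 days after pin-tool dosing on the day after seeding. Dosing used one drug alone or a fixed anchor-drug dose plus five library-drug doses (not always all listed) in √10 steps, and values are medians of duplicate plates.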

Compound in assay [2]: Cc1ccc(C(=O)Nc2cccc(C(F)(F)F)c2)cc1Nc1cncc(C(N)=O)c1 [ALW-II-49-7] + Nc1ncn([C@H]2C[C@H](O)[C@@H](CO)O2)c(=O)n1 [Decitabine] (partner 2 µM)
In a few lines: as §1

Compound in assay [3]: Cc1nc(Nc2ncc(C(=O)Nc3c(C)cccc3Cl)s2)cc(N2CCN(CCO)CC2)n1 [Dasatinib] + C[C@@H](Oc1cc(-c2cnn(C3CCNCC3)c2)cnc1N)c1c(Cl)ccc(F)c1Cl [Crizotinib] (partner 1 µM)
In a few lines:
as §1

Compound in assay [4]: Cc1nc(Nc2ncc(C(=O)Nc3c(C)cccc3Cl)s2)cc(N2CCN(CCO)CC2)n1 [Dasatinib] + Cc1cc(Nc2cc(N3CCN(C)CC3)nc(Sc3ccc(NC(=O)C4CC4)cc3)n2)n[nH]1 [Tozasertib] (partner 0.1 µM)
A digest of the protocol: as §1

As for UMC-11, the relative viability in assay [1] (first compound 0.05 µM) amounted to 1.18; in assay [1] (first compound 0.1581 µM), 0.856; in assay [1] (first compound 0.5 µM), 1.01; in assay [1] (first compound 1.581 µM), 0.901; in assay [1] (first compound 5 µM), 1.08; in assay [2] (first compound 0.08 µM), 0.642. Further, the relative viability turned out to be 0.663 in assay [2] (first compound 0.253 µM); 0.58 in assay [2] (first compound 0.8 µM); 0.419 in assay [2] (first compound 2.53 µM); 0.552 in assay [2] (first compound 8 µM); 0.537 in assay [3] (first compound 0.005 µM); 0.389 in assay [3] (first compound 0.01581 µM). For the same cell line, the relative viability in assay [3] (first compound 0.05 µM) is 0.359; in assay [3] (first compound 0.1581 µM), 0.258; in assay [3] (first compound 0.5 µM), 0.242; in assay [4] (first compound 0.005 µM), 0.196; in assay [4] (first compound 0.01581 µM) it was 0.203; in assay [4] (first compound 0.05 µM), 0.193. Also, the relative viability in assay [4] (first compound 0.1581 µM) came out at 0.184; in assay [4] (first compound 0.5 µM), 0.172.
